Key:
full-length NS3/4A = target: T1, full-length NS3/4A (Hepatitis C virus genotype 1b, UniProt Q9WMX2); assay: Type (mechanism) of enzyme inhibition, kinetic analysis; assay type: biochemical; details: with respect to the substrate, best fit model
T1 construct: wild-type HCV NS3 (HCV polyprotein residues 1027–1657); His-tag (N); made in house
Protocol: Full-length NS3/4A activity was monitored in the same way as the primary screening with varying concentration of both inhibitor compounds and substrate (0–8 µM). The concentration of compounds varied from 0 to 20 µM at 1.5-fold dilution factor.

[1] = target: T2, HCV replicon cell lysate sg 1b (NS3) (Hepatitis C virus genotype 1b, UniProt Q9WMX2); assay: Whole cell lysate inhibition assay, HCV subgenomic replicon 1b; assay type: biochemical
T2 construct: host or cells: Huh7 Clone B cells stably replicating an HCV 1b subgenomic replicon; whole cell lysate
Protocol: (§1) Huh7-1 cells (also known as Huh7/scr cells) were obtained from F.V. Chisari (The Scripps Research Institute, La Jolla, CA). Clone B HCV sub-genotype 1b Huh7 cells were obtained from the NIH AIDS Research and Reference Reagent Program and have been previously described. Huh7 cells stably replicating the sub-genotype 2a HCV JFH-1 replicon were generated as previously described. All cells were cultured in complete Dulbecco’s modified Eagle’s medium (DMEM) supplemented with 10% fetal bovine serum, 100 units/mL penicillin, […] streptomycin, and 2 mM L-glutamine. HCV replicon cells were maintained in 500 µg/mL Geneticin (Invitrogen). For NS3 inhibition analysis, lysates from parental Huh7 cells and HCV replicon cells were harvested on ice in pre-chilled FRET cell lysis buffer (50 mM Tris-HCl, pH 7.5; 150 mM NaCl, 2 mM EDTA, 1.25% Triton X-100). Lysates were brought to room temperature and mixed 1∶1 with 2× FRET assay buffer (100 mM Tris-HCl, pH 7.5, 300 mM NaCl, 4 mM EDTA, 2.5% Triton X-100, 10 mM GSH, and 4 µM substrate). Fluorescence intensity was continuously monitored for 1 hour, and IC50 values were determined in the same way as biochemical assays.

[2] = target: T3, full-length NS3/4A protease (genotype 1b) (Hepatitis C virus genotype 1b, UniProt Q9WMX2); assay: biochemical; details: IC50 Full-length NS3/4A, purified full-length NS3/4A, genotype 1b wild-type
T3 construct: wild-type HCV NS3 (HCV polyprotein residues 1027–1657); His-tag (N); made in house
Protocol: All assays were done in duplicate in black 384-well plates (Matrix Technologies). […] 200 nL of 10 mM compound (50 µM final concentrations) were then added and incubated for 5 minutes. Enzyme reactions were initiated with 10 µL of substrate Ac-DE-Dap(QXL520)-EE-Abu-ψ-[COO]AS-C(5-FAMsp)-NH2 (Anaspec) (1 µM final concentration), incubated for 6 minutes, and quenched by 10 µL of 10% SDS as a stop solution. Fluorescence intensity was monitored with a POLARstar OPTIMA microplate reader (BMG LABTECH). Each plate contained a total of 32 positive and 32 negative controls.
(§2) A series of compound concentrations (0 to 200 µM final concentration at 2-fold serial dilution) in 100% DMSO were prepared in a 384-well plate. 20 µL of enzyme solution was distributed to wells, and 0.5 µL of varying concentration of compounds were added and incubated for 5 minutes. The enzyme reaction was initiated by adding 5 µL of the substrate, and its activity was continuously monitored for 6 minutes. The IC50 values were calculated by fitting with the Hill equation (1), with OriginPro 8.5 (OriginLab, Inc.) where y is percent inhibition, x is inhibitor concentration, n is the slope of the concentration–response curve (Hill slope), and Vmax is maximal inhibition from two to four independent assays. [drawing 1] (1)

replicon cells 2a = system: replicon cells 2a; parameters: method as in PMID 19457562, PMID 14578911; details: cited from earlier work
[3] = target: T4, HCV replicon cell lysate sg 2a (NS3) (Hepatitis C virus genotype 2a, UniProt Q99IB8); assay: Whole cell lysate inhibition assay, HCV subgenomic replicon 2a; assay type: biochemical
T4 construct: expressed in transfected cells; host or cells: Huh7 cells stably replicating the JFH-1 subgenomic replicon; whole cell lysate
Protocol: as §1

NS3 protease domain = target: T5, NS3 protease domain (Hepatitis C virus genotype 1b, UniProt Q9WMX2); assay: Fluorescence enzymatic assay with NS3 protease domain alone; assay type: biochemical
T5 construct: the full-length NS3/4A and the NS3/4A protease domain alone
Protocol: as §2

[4] = target: T6, NS3/4A protease genotype 2a (Hepatitis C virus genotype 2a, UniProt Q99IB8); assay: Inhibition assay with NS3/4A from genotype 2a; assay type: biochemical; details: IC50 Purified NS3/4A Sub-genotype 2a, genotype 2a
T6 construct: against the NS3/4A protease domains from three additional HCV genotypes (1a, 2a, and 4d); purchased Anaspec
Protocol: The inhibitory activity of the final hit compounds from HTS were tested against three other HCV genotypes (1a, 2a, and 4d), along with a control (genotype 1b) and five NS3 drug-resistant mutants. Eight full-length NS3 mutants (V36M, R155K, A156T, A156S, 156V, V36A, T54A, and R155T) were generated by mutagenesis and purified, and the three HCV NS3/4A protease genotypes were purchased from Anaspec. Unfortunately the enzyme activities of the three mutants V36A, T54A, and R155T were much less than that of the rest of the mutants and were insufficient for testing, therefore mutant studies were done with the five active mutants. Continuous kinetic assays were performed against all hit compounds in the same way as the wild-type NS3/4A. As a control, full-length NS3/4A (genotype 1b) was tested under the same conditions for direct comparison for each plate.

replicon cells 1b = system: replicon cells 1b; parameters: method as in PMID 19457562, PMID 14578911; details: cited from earlier work

Structure (SMILES): COc1ccc2c(O[C@@H]3C[C@H]4C(=O)N[C@]5(C(=O)O)C[C@H]5/C=C\CCCCC[C@H](NC(=O)OC5CCCC5)C(=O)N4C3)cc(-c3csc(NC(C)C)n3)nc2c1 [BILN-2061, reference compound]
- mechanism of inhibition (full-length NS3/4A): competitive inhibition
- fold increase of IC50, whole cell lysate 1b vs biochemical assay ([1]; sg1b lysate compared to purified enzyme): ~8 fold
- IC50 ([1]; whole cell lysate, subgenomic replicon 1b): 37 ± 10 nM
- IC50 [2]: 4.6 ± 0.5 nM
- EC50 (replicon cells 2a): 67 nM
- fold increase of IC50, whole cell lysate 2a vs biochemical assay ([3]; sg2a lysate compared to purified enzyme): ~19 fold
- IC50 ([3]; whole cell lysate, subgenomic replicon 2a): 230 ± 30 nM
- IC50 (NS3 protease domain): 1.7 ± 0.1 nM
- IC50 [4]: 12 ± 1 nM
- EC50 (replicon cells 1b): 3 nM

— article PMC3793977, “High-Throughput Screening (HTS) and Hit Validation to Identify Small Molecule Inhibitors with Activity against NS3/4A proteases from Multiple Hepatitis C Virus Genotypes” (PLoS ONE, 2013)
